Molecular target: CDK2 (human) (UniProt P24941)
Assay: Enzyme Assay

| Ki | SMILES |
| --- | --- |
| 190 nM | Cc1c(Nc2nccc(-c3sc(=O)n(C)c3C)n2)cccc1NS(C)(=O)=O |
| 2230 nM | COc1cc(Cl)ccc1Nc1nccc(-c2sc(=O)n(C)c2C)n1 |
| 20 nM | CC(=O)c1cccc(Nc2nccc(-c3sc(=O)n(C)c3C)n2)c1 |
| 50 nM | CCc1ccc(Nc2nccc(-c3sc(=O)n(C)c3C)n2)cc1 |
| > 10000 nM | CCOc1ccccc1Nc1nccc(-c2sc(=O)n(C)c2C)n1 |
| 460 nM | Cc1ccccc1Nc1nccc(-c2sc(=O)n(C)c2C)n1 |
| 490 nM | Cc1cc(F)ccc1Nc1nccc(-c2sc(=O)n(C)c2C)n1 |
| 40 nM | Cc1ccc(Nc2nccc(-c3sc(=O)n(C)c3C)n2)cc1 |
| > 10000 nM | Cc1c(-c2ccnc(Nc3ccccc3C(F)(F)F)n2)sc(=O)n1C |
| 5360 nM | Cc1c(-c2ccnc(Nc3ccccc3OC(F)F)n2)sc(=O)n1C |
| 70 nM | COc1cccc(Nc2nccc(-c3sc(=O)n(C)c3C)n2)c1 |
| 2470 nM | COc1ccccc1Nc1nccc(-c2sc(=O)n(C)c2C)n1 |
| 1230 nM | CCc1ccccc1Nc1nccc(-c2sc(=O)n(C)c2C)n1 |
| 700 nM | COc1ccc(Nc2nccc(-c3sc(=O)n(C)c3C)n2)cc1 |
| 30 nM | Cc1c(-c2ccnc(Nc3cccc(NS(C)(=O)=O)c3)n2)sc(=O)n1C |
| 40 nM | Cc1c(-c2ccnc(Nc3ccccc3)n2)sc(=O)n1C |
| > 10000 nM | COc1ccc(Nc2nccc(-c3sc(=O)n(C)c3C)n2)c(OC)c1 |
| 20 nM | Cc1cccc(Nc2nccc(-c3sc(=O)n(C)c3C)n2)c1 |

— the Kinase Knowledgebase extract (Sharma et al. 2016)
